Reference: ChEMBL document CHEMBL1149598, “Synthesis of neutral and cationic tripyridylporphyrin-D-galactose conjugates and the photoinactivation of HSV-1” (Bioorg Med Chem, 2007)

Assays:
[1] = Photostability assessed after irradiation with 50 mW/cm^2 white light for 1 min; type: ADME
[2] = Photostability assessed after irradiation with 50 mW/cm^2 white light for 3 mins; type: ADME; details: 0.05 h
[3] = Photostability assessed after irradiation with 50 mW/cm^2 white light for 5 mins; type: ADME
[4] = Photostability assessed after irradiation with 50 mW/cm^2 white light for 10 mins; type: ADME
[5] = Photostability assessed after irradiation with 50 mW/cm^2 white light for 15 mins; type: ADME; details: 0.25 h
[6] = (§1) Phototoxicity against 50 mW/cm^2 white light irradiated Vero cells assessed as viable cells pretreated at 0.01 uM after 48 hrs by MTT assay; type: cell-based; details: chlorocebus sabaeus, Vero cells; read-out: Activity
[7] = (§2) Phototoxicity against 50 mW/cm^2 white light irradiated Vero cells assessed as viable cells pretreated at 0.05 uM after 48 hrs by MTT assay; type: cell-based; details: chlorocebus sabaeus, Vero cells; read-out: Activity
[8] = (§3) Phototoxicity against 50 mW/cm^2 white light irradiated Vero cells assessed as viable cells pretreated at 0.1 uM after 48 hrs by MTT assay; type: cell-based; details: chlorocebus sabaeus, Vero cells; read-out: Activity
[9] = (§4) Phototoxicity against 50 mW/cm^2 white light irradiated Vero cells assessed as viable cells assessed as viable cells pretreated at 0.5 uM after 48 hrs by MTT assay; type: cell-based; details: chlorocebus sabaeus, Vero cells; read-out: Activity
[10] = (§5) Phototoxicity against 50 mW/cm^2 white light irradiated Vero cells assessed as viable cells pretreated at 1.0 uM after 48 hrs by MTT assay; type: cell-based; details: chlorocebus sabaeus, Vero cells; read-out: Activity
[11] = (§6) Phototoxicity against 50 mW/cm^2 white light irradiated Vero cells assessed as viable cells pretreated at 2.5 uM after 48 hrs by MTT assay; type: cell-based; details: chlorocebus sabaeus, Vero cells; read-out: Activity
[12] = tested on: Human alphaherpesvirus 1; assay: Virucidal activity against HSV1 at 0.02 uM; type: functional; details: for inhibition at 0.02 µM: Human alphaherpesvirus 1
[13] = tested on: Human alphaherpesvirus 1; assay: (§7) Virucidal effect against HSV1 pretreated at 0.02 uM after 5 mins of irradiation with 50 mW/cm^2 white light; type: functional; details: for inhibition at 0.02 µM: Human alphaherpesvirus 1, light or radiation study
[14] = tested on: Human alphaherpesvirus 1; assay: as §7; type: functional; details: for inhibition at 0.02 µM: Human alphaherpesvirus 1, light or radiation study; remark: listed apart in the source
[15] = tested on: Human alphaherpesvirus 1; assay: Inhibition of HSV1 infected Vero cells treated at 0.02 uM assessed virus yield under dark condition; type: functional; details: Human alphaherpesvirus 1, Vero
[16] = tested on: Human alphaherpesvirus 1; assay: Inhibition of HSV1 infected Vero cells treated at 0.02 uM assessed virus yield after 2 hrs under dark condition; type: functional; details: Human alphaherpesvirus 1, Vero
[17] = tested on: Human alphaherpesvirus 1; assay: Inhibition of HSV1 infected Vero cells treated at 0.02 uM assessed virus yield after 4 hrs under dark condition; type: functional; details: Human alphaherpesvirus 1, Vero
[18] = tested on: Human alphaherpesvirus 1; assay: Inhibition of HSV1 infected Vero cells treated at 0.02 uM assessed virus yield after 16 hrs under dark condition; type: functional; details: Human alphaherpesvirus 1, Vero
[19] = tested on: Human alphaherpesvirus 1; assay: Inhibition of HSV1 infected Vero cells treated at 0.02 uM assessed virus yield irradiated with 50 mW/ cm^2 white light for 15 mins; type: functional; details: Human alphaherpesvirus 1, Vero, light or radiation study, 0.25 h
[20] = tested on: Human alphaherpesvirus 1; assay: Inhibition of HSV1 infected Vero cells treated at 0.02 uM assessed virus yield after 2 hrs of irradiated with 50 mW/ cm^2 white light for 15 mins; type: functional; details: Human alphaherpesvirus 1, Vero, light or radiation study
[21] = tested on: Human alphaherpesvirus 1; assay: Inhibition of HSV1 infected Vero cells treated at 0.02 uM assessed virus yield after 4 hrs of irradiated with 50 mW/ cm^2 white light for 15 mins; type: functional; details: Human alphaherpesvirus 1, Vero, light or radiation study
[22] = tested on: Human alphaherpesvirus 1; assay: Inhibition of HSV1 infected Vero cells treated at 0.02 uM assessed virus yield after 16 hrs of irradiated with 50 mW/ cm^2 white light for 15 mins; type: functional; details: Human alphaherpesvirus 1, Vero, light or radiation study
[23] = tested on: Vero; assay: as §1; type: cell-based; details: chlorocebus sabaeus, vero, 48 h, 0.01 µM
[24] = tested on: Vero; assay: as §2; type: cell-based; details: chlorocebus sabaeus, vero, 48 h, 0.05 µM
[25] = tested on: Vero; assay: as §3; type: cell-based; details: chlorocebus sabaeus, vero, 48 h, 0.1 µM
[26] = tested on: Vero; assay: as §4; type: cell-based; details: chlorocebus sabaeus, vero, 48 h, 0.5 µM
[27] = tested on: Vero; assay: as §5; type: cell-based; details: chlorocebus sabaeus, vero, 48 h, 1 µM
[28] = tested on: Vero; assay: as §6; type: cell-based; details: chlorocebus sabaeus, vero, 48 h, 2.5 µM

Structure (SMILES) | Activity [1] [%] | Activity [2] [%] | Activity [3] [%] | Activity [4] [%] | Activity [5] [%] | viability at 48 h, 0.01 µM [6] [%] | viability at 48 h, 0.05 µM [7] [%] | viability at 48 h, 0.1 µM [8] [%] | viability at 48 h, 0.5 µM [9] [%] | viability at 48 h, 1 µM [10] [%] | viability at 48 h, 2.5 µM [11] [%] | inhibition at 0.02 µM [12] [%] | inhibition at 0.02 µM [13] [%] | inhibition at 0.02 µM [14] [%] | further results
O=C(OC[C@H]1OC(O)[C@H](O)[C@@H](O)[C@H]1O)c1ccc(-c2c3nc(c(-c4ccncc4)c4ccc([nH]4)c(-c4ccncc4)c4nc(c(-c5ccncc5)c5ccc2[nH]5)C=C4)C=C3)cc1 (some centres undefined) | 100 | 98 | 97 | 88 | 83 | 108 | 98.4 | 92.3 | 55.5 | 27.2 | 4.4 | 28.6 | 44.5 | 85.6 | inhibition at 0.02 µM [15]: 0%; inhibition at 0.02 µM [16]: 0%; inhibition at 0.02 µM [17]: 0%; inhibition at 0.02 µM [18]: 45.8%; inhibition at 0.02 µM [19]: 71.1%; inhibition at 0.02 µM [20]: 79.2%; inhibition at 0.02 µM [21]: 93.6%; inhibition at 0.02 µM [22]: 95.7%
C[n+]1ccc(-c2c3nc(c(-c4cc[n+](C)cc4)c4ccc([nH]4)c(-c4cc[n+](C)cc4)c4nc(c(-c5ccc(C(=O)O)cc5)c5ccc2[nH]5)C=C4)C=C3)cc1.[I-].[I-].[I-] | 98 | 98 | 98 | 98 | 97 | 110 | 98.6 | 96.7 | 89.2 | 76.6 | 56.3 | 16.7 | 50 | 63.3 | –
CC1(C)O[C@H]2[C@@H](O1)[C@@H](COC(=O)c1ccc(-c3c4nc(c(-c5ccncc5)c5ccc([nH]5)c(-c5ccncc5)c5nc(c(-c6ccncc6)c6ccc3[nH]6)C=C5)C=C4)cc1)O[C@@H]1OC(C)(C)O[C@@H]12 | 98 | 98 | 98 | 94 | 93 | – | – | – | – | – | – | – | – | – | Activity [23]: 100.8%; Activity [24]: 96.4%; Activity [25]: 93.9%; Activity [26]: 36.4%; Activity [27]: 14.4%; Activity [28]: 6.4%; Inhibition [12]: 27.7%; Inhibition [13]: 36.4%; Inhibition [14]: 78.9%
O=C(O)c1ccc(-c2c3nc(c(-c4ccncc4)c4ccc([nH]4)c(-c4ccncc4)c4nc(c(-c5ccncc5)c5ccc2[nH]5)C=C4)C=C3)cc1 [PORPHIRIN] | 99 | 99 | 96 | 92 | 87 | 105 | 95.7 | 90.6 | 76.6 | 39.7 | 11.4 | 8.9 | 52.9 | 90.5 | –
